Like-named read-outs stand apart in the source and are kept apart here.
Columns and labels:
CHO-K1 cells = experiment: Toxicity in RRA (loss of luciferase signal); conditions: toxicity = loss of signal (<0.75 fold increase)
beta amyloid production = experiment: Repressor Release Assay (RRA); format: cell-based; conditions: for fold induction at 3 µg/mL: Conc 3 μg/ml; for fold induction at 3 µg/mL / fold induction at 10 µg/mL / fold induction at 20 µg/mL: read-out: APPI Fold Increase; for APPI % of Example #98: relative to Example 98
Protocol: CHO-K1 cells were cultured in whole DMEM media (DMEM—High Glucose with 10% fetal bovine serum, 1% Non-essential Amino Acids, and 1% Penicillin-Streptomycin) at 37° C. with 5% CO2. Two million cells were plated into 10-cm dishes 24 hrs prior to transfection.
Transient transfections were completed as recommended by Gibco BRL using their Lipofectamine Plus system. First, 6 μg of pRSVO-luc and 6 μg of APP-lacI construct DNA were added to 460 μL Opti-Mem transfection media and incubated with 30 μL Plus reagent for 15 minutes. Then, a lipid mixture of 40 μL Lipofectamine reagent and 460 μL Opti-Mem transfection media was incubated with the DNA-Plus reagent mixture for 15 minutes. During the DNA-lipid incubation, the CHO-K1 cells were washed once and covered in 5.0 mL DMEM media without Penicillin-Streptomycin. The DNA-lipid preparation was then layered onto these cells and incubated at 37° C. overnight.
[…] transfected cells per well (100 μL total volume) were plated into sterile, opaque Packard 96-well Culture-Plates in clear DMEM whole media (DMEM—without phenol red) and incubated at 37° C. with 5% CO2 for 3-5 hours.
Compounds were diluted using two different protocols; one protocol was used for compounds supplied neat (weighed powder in vial) and the other protocol was used for compounds supplied in solution (20 mM in DMSO in 96-well plates). For both protocols, 25 mM Hepes and 25 mM Hepes/1% DMSO were prepared fresh to be used as diluent. The Hepes/DMSO was used as the diluent control on all experimental plates.
The following table depicts the steps for compound dilution (please note that the last step was the addition of compound to cells/media in tissue culture plate).
Because some compounds were present in 96-well format at 20 mM, the following represents the protocol for their dilution (note that an average molecular weight of these compounds was used to calculate these dilutions and as above, the last step was the addition of compound to cells/media in tissue culture plate).
Once the compounds were diluted, they were applied in duplicate on cells in tissue culture plates (prepared above). Cells were incubated with compound at 37° C. with 5% CO2 for an additional 36-48 hours.
Luciferase assays (LucLite reagent, Packard) were performed and were read on a Packard TopCount instrument. Media was removed from each 96-well plate and replaced with 100 μL PBS per well (with Mg^2+ and Ca^2+). An equal volume (100 μL) of the LucLite lysis/substrate buffer was added to each well and the plates were sealed and mixed in the dark on a rotary shaker for 15-30 minutes at room temperature. Luciferase readings were then taken on the TopCount instrument. Measurements were expressed as relative light units (RLU) and are calculated and analyzed in MS Excel as follows: […]

[1] = luciferase activity over diluent control
[2] = Conc 10 μg/ml, luciferase activity over diluent control
[3] = Conc 20 μg/ml, luciferase activity over diluent control
[4] = Conc 20 μg/ml, 1=non-toxic, 0=toxic
[5] = Conc 20 μg/ml, luciferase activity (RLU) over diluent control

## C=CCCC(O)(CCC=C)[C@@H](NS(=O)(=O)c1cccc(Cl)c1)[C@@H](C)CC [Example 260, N-{(1S)-2-(3-butenyl)-2-hydroxy-1-[(1S)-1-methylpropyl]-5-hexenyl}-3-chlorobenzenesulfonamide]
CHO-K1 cells; Conc 3 μg/ml
  (%)APPI Toxicity: 1 (1=non-toxic)
CHO-K1 cells; Conc 10 μg/ml
  (%)APPI Toxicity: 1 (1=non-toxic)
Beta amyloid production; [1]
  fold induction at 3 µg/mL: 1.5
Beta amyloid production; [2]
  fold induction at 10 µg/mL: 6.23

## CC[C@H](C)[C@H](NS(=O)(=O)c1ccc(Br)cc1)C(O)C=C(C)C (stereo partly drawn) [Example 156, 4-bromo-N-{(1S)-2-hydroxy-4-methyl-1-[(1S)-1-methylpropyl]-3-pentenyl}benzenesulfonamide]
CHO-K1 cells; Conc 3 μg/ml
  (%)APPI Toxicity: 1 (1=non-toxic)
CHO-K1 cells; Conc 10 μg/ml
  (%)APPI Toxicity: 1 (1=non-toxic)
Beta amyloid production; [1]
  fold induction at 3 µg/mL: 1.52
Beta amyloid production; [2]
  fold induction at 10 µg/mL: 2.01

## CC[C@H](C)[C@H](NS(=O)(=O)c1cccc(Cl)c1)C(O)(c1ccc(OC)cc1)c1ccc(OC)cc1 [Example 258, 3-chloro-N-((1S,2S)-1-{hydroxy [bis(4-methoxyphenyl)]methyl}-2-methylbutyl)benzenesulfonamide]
CHO-K1 cells; Conc 10 μg/ml
  (%)APPI Toxicity: 1 (1=non-toxic)
Beta amyloid production; [2]
  fold induction at 10 µg/mL: 1.72

## O=S(=O)(N[C@H](CO)CC1CCCCC1)c1ccc(Cl)cc1 [Example 95, 4-chloro-N-[(1S)-2-cyclohexyl-1-(hydroxymethyl)ethyl]benzenesulfonamide]
CHO-K1 cells; Conc 20 μg/ml
  (%)APPI Toxicity: 1 (1=non-toxic)
Beta amyloid production; [3]
  fold induction at 20 µg/mL: 1.6

## CC[C@H](C)[C@H](NS(=O)(=O)c1ccc(F)cc1)C(O)(c1ccc(N(C)C)cc1)c1ccc(N(C)C)cc1 [Example 247, N-{(1S,2S)-1-[bis[4-(dimethylamino)phenyl](hydroxy)methyl]-2-methylbutyl}-4-fluorobenzenesulfonamide]
CHO-K1 cells; Conc 10 μg/ml
  (%)APPI Toxicity: 1 (1=non-toxic)
Beta amyloid production; [2]
  fold induction at 10 µg/mL: 1.54

## CC[C@H](C)[C@H](NS(=O)(=O)c1ccc(Br)cc1)C(O)(CC)CC [Example 217, 4-bromo-N-{(1S)-2-ethyl-2-hydroxy-1-[(1S)-1-methylpropyl]butyl}benzenesulfonamide]
CHO-K1 cells; Conc 10 μg/ml
  (%)APPI Toxicity: 1 (1=non-toxic)
Beta amyloid production; [2]
  fold induction at 10 µg/mL: 1.68

## CCCCCCC(O)(CCCCCC)[C@@H](NS(=O)(=O)c1ccc(Cl)cc1)[C@@H](C)CC [Example 224, 4-chloro-N-{(1S)-2-hexyl-2-hydroxy-1-[(1S)-1-methylpropyl]octyl}benzenesulfonamide]
CHO-K1 cells; Conc 10 μg/ml
  (%)APPI Toxicity: 1 (1=non-toxic)
Beta amyloid production; [2]
  fold induction at 10 µg/mL: 2.22

## O=S(=O)(N[C@@H](CO)c1ccc(O)cc1)c1ccc(Br)cc1 [Example 17, 4-bromo-N-[(1R)-2-hydroxy-1-(4-hydroxyphenyl)ethyl]benzenesulfonamide]
CHO-K1 cells; Conc 20 μg/ml
  (%)APPI Toxicity: 1 (1=non-toxic)
Beta amyloid production; [3]
  fold induction at 20 µg/mL: 2.2

## C[C@H](c1ccccc1)[C@@H](CO)NS(=O)(=O)c1ccc(Cl)cc1 [Example 51, 4-chloro-N-[(1S,2R)-1-(hydroxymethyl)-2-phenylpropyl]benzenesulfonamide]
CHO-K1 cells; [4]
  (%)APPI Toxicity: 1 (1=non-toxic)
Beta amyloid production; [5]
  fold induction at 20 µg/mL: 1.6

## CCCCCC[C@@H](c1ccco1)[C@@H](CO)NS(=O)(=O)c1ccc(Cl)cc1 [Example 68, 4-chloro-N-[(1S,2R)-2-(2-furyl)-1-(hydroxymethyl)octyl]benzenesulfonamide]
CHO-K1 cells; [4]
  (%)APPI Toxicity: 1 (1=non-toxic)
Beta amyloid production; [5]
  fold induction at 20 µg/mL: 2

## C=CCC(O)(CC=C)[C@@H](NS(=O)(=O)c1cccc(Cl)c1)[C@@H](C)CC [Example 254, N-{(1S)-2-allyl-2-hydroxy-1-[(1S)-1-methylpropyl]-4-pentenyl}-3-chloro benzenesulfonamide]
CHO-K1 cells; Conc 10 μg/ml
  (%)APPI Toxicity: 1 (1=non-toxic)
Beta amyloid production; [2]
  APPI Fold Increase: 1.93 fold
Beta amyloid production; Conc 10 μg/ml
  APPI % of Example #98: 71.92%

## CC[C@H](C)[C@@H](CO)NS(=O)(=O)c1ccccc1Br [Example 1, 2-Bromo-N-[(1S,2S)-1-(hydroxymethyl)-2-methylbutyl]benzenesulfonamide]
CHO-K1 cells; Conc 20 μg/ml
  (%)APPI Toxicity: 1 (1=non-toxic)
Beta amyloid production; [3]
  fold induction at 20 µg/mL: 1.6

## C=CCCC(O)[C@@H](NS(=O)(=O)c1cccc(Cl)c1)[C@@H](C)CC (stereo partly drawn) [Example 200, 3-chloro-N-{(1S)-2-hydroxy-1-[(1S)-1-methylpropyl]-5-hexenyl}benzenesulfonamide]
CHO-K1 cells; Conc 10 μg/ml
  (%)APPI Toxicity: 1 (1=non-toxic)
Beta amyloid production; [2]
  fold induction at 10 µg/mL: 1.85

## CCC(O)[C@@H](NS(=O)(=O)c1ccc(Br)cc1)[C@@H](C)CC (stereo partly drawn) [Example 153, 4-bromo-N-{(1S)-2-hydroxy-1-[(1S)-1-methylpropyl]butyl}benzenesulfonamide]
CHO-K1 cells; Conc 3 μg/ml
  (%)APPI Toxicity: 1 (1=non-toxic)
CHO-K1 cells; Conc 10 μg/ml
  (%)APPI Toxicity: 1 (1=non-toxic)
Beta amyloid production; [1]
  fold induction at 3 µg/mL: 2
Beta amyloid production; [2]
  fold induction at 10 µg/mL: 4.77

## CC(C)[C@@H](CO)NS(=O)(=O)c1c(Cl)cc(Cl)cc1Cl [Example 28, 2,4,6-trichloro-N-[(1S)-1-(hydroxymethyl)-2-methylpropyl]benzenesulfonamide]
CHO-K1 cells; Conc 20 μg/ml
  (%)APPI Toxicity: 1 (1=non-toxic)
Beta amyloid production; [3]
  fold induction at 20 µg/mL: 1.5

## CC[C@H](C)[C@H](NS(=O)(=O)c1ccc(Cl)cc1)C(O)(CC(C)C)CC(C)C [Example 226, 4-chloro-N-{(1S)-2-hydroxy-2-isobutyl-4-methyl-1-[(1S)-1-methylpropyl]pentyl}benzenesulfonamide]
CHO-K1 cells; Conc 10 μg/ml
  (%)APPI Toxicity: 1 (1=non-toxic)
Beta amyloid production; [2]
  fold induction at 10 µg/mL: 4.6

## COc1ccc([C@@H](C)[C@@H](CO)NS(=O)(=O)c2ccc(Br)cc2)cc1 [Example 71, 4-bromo-N-[(1S,2R)-1-(hydroxymethyl)-2-(4-methoxyphenyl)propyl]benzenesulfonamide]
CHO-K1 cells; [4]
  (%)APPI Toxicity: 1 (1=non-toxic)
Beta amyloid production; [5]
  fold induction at 20 µg/mL: 1.9

## 2-fluoro-N-[(1S)-1-(hydroxy 1-methylethyl]benzenesulfonamide [Example 117]
CHO-K1 cells; Conc 20 μg/ml
  (%)APPI Toxicity: 1 (1=non-toxic)
Beta amyloid production; [3]
  APPI Fold Increase: 1.5 fold
Beta amyloid production; Conc 20 μg/ml
  APPI % of Example #98: 31%

## CC[C@H](C)[C@H](NS(=O)(=O)c1ccc(F)cc1)C(O)c1ccc(N(C)C)cc1 (stereo partly drawn) [Example 143, N-{(1S,2S)-1-[[4-(dimethylamino)phenyl](hydroxy)methyl]-2-methylbutyl}-4-fluorobenzenesulfonamide]
CHO-K1 cells; Conc 10 μg/ml
  (%)APPI Toxicity: 1 (1=non-toxic)
Beta amyloid production; [2]
  fold induction at 10 µg/mL: 5.72

## CC(C)[C@@H](CO)NS(=O)(=O)c1cc(F)c(Br)cc1F [Example 26, 4-bromo-2,5-difluoro-N-[(1S)-1-(hydroxymethyl)-2-methylpropyl]benzenesulfonamide]
CHO-K1 cells; Conc 20 μg/ml
  (%)APPI Toxicity: 1 (1=non-toxic)
Beta amyloid production; [3]
  fold induction at 20 µg/mL: 2.4

## CCC[C@H](c1ccc(OC)cc1)[C@@H](CO)NS(=O)(=O)c1ccc(Cl)cc1 [Example 57, 4-chloro-N-[(1S,2R)-1-(hydroxymethyl)-2-(4-methoxyphenyl)pentyl]benzenesulfonamide]
CHO-K1 cells; [4]
  (%)APPI Toxicity: 1 (1=non-toxic)
Beta amyloid production; [5]
  fold induction at 20 µg/mL: 1.7

From patent US7166622B2, “Substituted phenylsulfonamide inhibitors of beta amyloid production” (Wyeth, priority 2002, dated 2007)
